Data from patent US20230106506A1, “NOVEL PqsR INVERSE AGONISTS” (Helmholtz-Zentrum Fur Infektionsforschung GmbH, priority 2020, published 2023).

How the values were obtained:
[1] = Metabolic stability in mouse liver microsomes (MLM); format: in vitro ADME; conditions: 1 μM compound, 0.5 mg/mL MLM, 1 mM NADPH, 37° C., read-out: half-life (t1/2) towards MLM
Experimental: For the evaluation of phase I metabolic stability, the compound (1 μM) was incubated with 0.5 mg/mL MLM (Corning) and 1 mM NADPH at 37° C. for 0, 5, 10, 15 and 30 min. The metabolic stability of Verapamil, Diphenhydramine and Benzydamine (1 μM each) were determined in parallel to confirm the enzymatic activity of the MLM. The incubation was stopped by addition of 2 volumes of acetonitrile containing internal standard (1 μM Leucine Enkephaline). Samples were centrifuged (15 min, 3,500 rpm). Concentration of the remaining test compound at the different time points was analyzed by HPLC-MS/MS and used to determine half-life (t1/2).

[2] = Kinetic turbidimetric aqueous solubility; format: physicochemical; conditions: aqueous buffer, kinetic from dmso stock; PBS buffer, final DMSO 2%, absorbance 620 nm; read-out: Kinetic Turbidimetric Aqueous Solubility at room temperature for 5 min
Experimental: Kinetic Turbidimetric Aqueous Solubility at room temperature for 5 min. […] Data was analyzed by fitting a four parameter sigmoidal function to the measured and normalized absorbances and AUC calculation providing access to Log S (decadic logarithm of the solubility).

[3] = system: P. aeruginosa pyocyanin production; assay: Pyocyanin assay; format: cell-based, P. aeruginosa strain PA14; conditions: Pseudomonas aeruginosa, PA14, 16 h, read-out: IC50-value towards pyocyanin production
Experimental: Inhibition of P. aeruginosa pyocyanin production by compounds was determined photometrically as described before. In short, an overnight culture of PA14 in PPGAS medium was washed, diluted in medium to a start OD600 of 0.02, and incubated for 16 h (37° C., 200 rpm, relative humidity 75%) in the presence of test compounds. Then, cultures were extracted with chloroform and re-extracted with 0.2 M HCl. Protonated red colored pyocyanin was determined by measuring OD520 and normalizing to OD600.

CC(C)Oc1ccc(-c2ncc(CNc3cc(-c4cn[nH]c4)nc(C(F)(F)F)c3)cn2)cc1 [Compound 28, N-((2-(4-Isopropoxyphenyl)pyrimidin-5-yl)methyl)-2-(1H-pyrazol-4-yl)-6-(trifluoromethyl)pyridin-4-amine]
half-life at 1 µM [1]: 1.02 to 1.67 h | solubility at 5 min [2]: > 25 µM | IC50 [3]: ≤ 100 nM

CC(C)Oc1ccc(-c2cnc(CNc3cc(-c4cn[nH]c4)nc(C(F)(F)F)c3)nc2)cc1Cl [Compound 47, N-((5-(3-Chloro-4-isopropoxyphenyl)pyrimidin-2-yl)methyl)-2-(1H-pyrazol-4-yl)-6-(trifluoromethyl)pyridin-4-amine]
half-life at 1 µM [1]: 0.5 to 1 h | solubility at 5 min [2]: > 10 µM | IC50 [3]: 201 to 500 nM

Fc1cc(-c2ncc(CNc3cc(-c4cn[nH]c4)nc(C(F)(F)F)c3)cn2)ccc1Cl [Compound 34, N-((2-(4-Chloro-3-fluorophenyl)pyrimidin-5-yl)methyl)-2-(1H-pyrazol-4-yl)-6-(trifluoromethyl)pyridin-4-amine]
half-life at 1 µM [1]: > 1.67 h | solubility at 5 min [2]: > 10 µM | IC50 [3]: 201 to 500 nM

FC(F)(F)c1cc(NCc2cnc(-c3ccc(Cl)c(Cl)c3)nc2)cc(-c2cn[nH]c2)n1 [Compound 35, N-((2-(3,4-Dichlorophenyl)pyrimidin-5-yl)methyl)-2-(1H-pyrazol-4-yl)-6-(trifluoromethyl)pyridin-4-amine]
half-life at 1 µM [1]: > 1.67 h | solubility at 5 min [2]: > 10 µM | IC50 [3]: 101 to 200 nM

CC(C)Oc1ccc(-c2ncc(CNc3cc(-c4ccc(C#N)nc4)nc(C(F)(F)F)c3)s2)cc1 [Compound 68, 4-(((2-(4-Isopropoxyphenyl)thiazol-5-yl)methyl)amino)-6-(trifluoromethyl)-[2,3′-bipyridine]-6′-carbonitrile]
half-life at 1 µM [1]: > 1.67 h | solubility at 5 min [2]: > 25 µM | IC50 [3]: 201 to 500 nM

FC(F)(F)c1cc(NCc2cnc(-c3ccc(Oc4ccc(Cl)cc4)cc3)nc2)cc(-c2cn[nH]c2)n1 [Compound 54, N-((2-(4-(4-Chlorophenoxy)phenyl)pyrimidin-5-yl)methyl)-2-(1H-pyrazol-4-yl)-6-(trifluoromethyl)pyridin-4-amine]
half-life at 1 µM [1]: > 1.67 h | solubility at 5 min [2]: > 10 µM

Nc1ccc(Oc2ccc(-c3ncc(CNc4cc(-c5cn[nH]c5)nc(C(F)(F)F)c4)cn3)cc2)cc1 [Compound 56, N-((2-(4-(4-Aminophenoxy)phenyl)pyrimidin-5-yl)methyl)-2-(1H-pyrazol-4-yl)-6-(trifluoromethyl)pyridin-4-amine]
half-life at 1 µM [1]: 1.02 to 1.67 h | solubility at 5 min [2]: > 10 µM | IC50 [3]: 101 to 200 nM

CC(C)Oc1ccc(-c2cnc(CNc3cc(-c4cn[nH]c4)nc(C(F)(F)F)c3)cn2)cc1 [Compound 27, N-((5-(4-Isopropoxyphenyl)pyrazin-2-yl)methyl)-2-(1H-pyrazol-4-yl)-6-(trifluoromethyl)pyridin-4-amine]
half-life at 1 µM [1]: > 1.67 h | solubility at 5 min [2]: > 25 µM | IC50 [3]: 101 to 200 nM

FC(F)(F)c1cc(NCc2nc3cc(Oc4ccccc4)ccc3[nH]2)cc(-n2ccnc2)n1 [Compound 61, 2-(1H-imidazol-1-yl)-N-((5-phenoxy-1H-benzo[d]imidazol-2-yl)methyl)-6-(trifluoromethyl)pyridin-4-amine]
half-life at 1 µM [1]: 0.5 to 1 h | solubility at 5 min [2]: > 10 µM | IC50 [3]: 101 to 200 nM

Fc1ccccc1Oc1ccc(-c2ncc(CNc3cc(-c4cn[nH]c4)nc(C(F)(F)F)c3)cn2)cc1 [Compound 51, N-((2-(4-(2-Fluorophenoxy)phenyl)pyrimidin-5-yl)methyl)-2-(1H-pyrazol-4-yl)-6-(trifluoromethyl)pyridin-4-amine]
half-life at 1 µM [1]: > 1.67 h | solubility at 5 min [2]: > 50 µM | IC50 [3]: 101 to 200 nM

CC(C)Oc1ccc(-c2cnc(CNc3cc(-c4cn[nH]c4)nc(C(F)(F)F)c3)cn2)cc1Cl [Compound 57, N-((5-(3-Chloro-4-isopropoxyphenyl)pyrazin-2-yl)methyl)-2-(1H-pyrazol-4-yl)-6-(trifluoromethyl)pyridin-4-amine]
half-life at 1 µM [1]: > 1.67 h | solubility at 5 min [2]: > 25 µM | IC50 [3]: 101 to 200 nM

CC(C)Oc1ccc(-c2ncc(CNc3cc(-c4cc[nH]n4)nc(C(F)(F)F)c3)cn2)cc1 [Compound 31, N-((2-(4-Isopropoxyphenyl)pyrimidin-5-yl)methyl)-2-(1H-pyrazol-3-yl)-6-(trifluoromethyl)pyridin-4-amine]
half-life at 1 µM [1]: > 1.67 h | solubility at 5 min [2]: > 10 µM | IC50 [3]: 201 to 500 nM

CC(C)Oc1ccc(-c2ncc(CNc3cc(-c4cnc[nH]4)nc(C(F)(F)F)c3)cn2)cc1 [Compound 41, 2-(1H-Imidazol-5-yl)-N-((2-(4-isopropoxyphenyl)pyrimidin-5-yl)methyl)-6-(trifluoromethyl)pyridin-4-amine]
half-life at 1 µM [1]: > 1.67 h | solubility at 5 min [2]: > 10 µM

CC(C)Oc1ccc(-c2ncc(CNc3cc(-c4cn[nH]c4)nc(C(F)(F)F)c3)cn2)cc1F [Compound 49, N-((2-(3-Fluoro-4-isopropoxyphenyl)pyrimidin-5-yl)methyl)-2-(1H-pyrazol-4-yl)-6-(trifluoromethyl)pyridin-4-amine]
half-life at 1 µM [1]: > 1.67 h | solubility at 5 min [2]: > 10 µM | IC50 [3]: 101 to 200 nM

CC(C)Oc1ccc(-c2ccc(CNc3cc(-c4cn[nH]c4)nc(C(F)(F)F)c3)nc2)cc1 [Compound 20, N-((5-(4-Isopropoxyphenyl)pyridin-2-yl)methyl)-2-(1H-pyrazol-4-yl)-6-(trifluoromethyl)pyridin-4-amine]
half-life at 1 µM [1]: > 1.67 h | solubility at 5 min [2]: > 10 µM | IC50 [3]: 101 to 200 nM

FC(F)(F)c1cc(NCc2cnc(-c3ccc(Cl)cc3)nc2)cc(-c2cn[nH]c2)n1 [Compound 33, N-((2-(4-Chlorophenyl)pyrimidin-5-yl)methyl)-2-(1H-pyrazol-4-yl)-6-(trifluoromethyl)pyridin-4-amine]
half-life at 1 µM [1]: 1.02 to 1.67 h | solubility at 5 min [2]: > 10 µM | IC50 [3]: 201 to 500 nM

CC(C)Oc1ccc(-c2ncc(CNc3cc(-c4nn[nH]n4)nc(C(F)(F)F)c3)s2)cc1 [Compound 19]
half-life at 1 µM [1]: > 1.67 h | solubility at 5 min [2]: ≥ 100 µM

CC(C)Oc1ccc(-n2cc(CNc3cc(-n4cncn4)nc(C(F)(F)F)c3)nn2)cc1 [Compound 06, N-((1-(4-Isopropoxyphenyl)-1H-1,2,3-triazol-4-yl)methyl)-2-(1H-1,2,4-triazol-1-yl)-6-(trifluoromethyl)pyridin-4-amine]
half-life at 1 µM [1]: 1.02 to 1.67 h | solubility at 5 min [2]: > 10 µM

CC(C)Oc1ccc(-c2ccc(CNc3cc(-c4cn[nH]c4)nc(C(F)(F)F)c3)cn2)cc1Cl [Compound 23, N-((6-(3-Chloro-4-isopropoxyphenyl)pyridin-3-yl)methyl)-2-(1H-pyrazol-4-yl)-6-(trifluoromethyl)pyridin-4-amine]
half-life at 1 µM [1]: > 1.67 h | solubility at 5 min [2]: > 25 µM | IC50 [3]: 201 to 500 nM

CC(C)Oc1ccc(-c2ccc(CNc3cc(-c4cn[nH]c4)nc(C(F)(F)F)c3)nc2)cc1Cl [Compound 24, N-((5-(3-Chloro-4-isopropoxyphenyl)pyridin-2-yl)methyl)-2-(1H-pyrazol-4-yl)-6-(trifluoromethyl)pyridin-4-amine]
half-life at 1 µM [1]: > 1.67 h | solubility at 5 min [2]: > 10 µM | IC50 [3]: 201 to 500 nM

FC(F)(F)Oc1ccc(-c2ncc(CNc3cc(-c4cn[nH]c4)nc(C(F)(F)F)c3)cn2)cc1 [Compound 55, 2-(1H-Pyrazol-4-yl)-N-((2-(4-(trifluoromethoxy)phenyl)pyrimidin-5-yl)methyl)-6-(trifluoromethyl)pyridin-4-amine]
half-life at 1 µM [1]: > 1.67 h | solubility at 5 min [2]: > 10 µM | IC50 [3]: 201 to 500 nM

CC(C)Oc1ccc(-c2ncc(CNc3cc(-n4ccnc4)nc(C(F)(F)F)c3)cn2)cc1Cl [Compound 30, N-((2-(3-Chloro-4-Isopropoxyphenyl)pyrimidin-5-yl)methyl)-2-(1H-imidazol-1-yl)-6-(trifluoromethyl)pyridin-4-amine]
half-life at 1 µM [1]: > 1.67 h | solubility at 5 min [2]: > 10 µM | IC50 [3]: 101 to 200 nM

CC(C)Oc1ccc(-c2ccc(CNc3cc(-c4cn[nH]c4)nc(C(F)(F)F)c3)nn2)cc1Cl [Compound 58, N-((6-(3-Chloro-4-isopropoxyphenyl)pyridazin-3-yl)methyl)-2-(1H-pyrazol-4-yl)-6-(trifluoromethyl)pyridin-4-amine]
half-life at 1 µM [1]: > 1.67 h | solubility at 5 min [2]: > 25 µM | IC50 [3]: 101 to 200 nM

CC(C)Oc1ccc(-c2cnc(CNc3cc(-n4cncn4)nc(C(F)(F)F)c3)nc2)cc1Cl [Compound 43, N-((5-(3-Chloro-4-isopropoxyphenyl)pyrimidin-2-yl)methyl)-2-(1H-1,2,4-triazol-1-yl)-6-(trifluoromethyl)pyridin-4-amine]
half-life at 1 µM [1]: > 1.67 h | solubility at 5 min [2]: > 10 µM

CC(C)Oc1ccc(-c2ncc(CNc3cc(-n4cncn4)nc(C(F)(F)F)c3)cn2)cc1Cl [Compound 60, N-((2-(3-Chloro-4-isopropoxyphenyl)pyrimidin-5-yl)methyl)-2-(1H-1,2,4-triazol-1-yl)-6-(trifluoromethyl)pyridin-4-amine]
half-life at 1 µM [1]: 1.02 to 1.67 h | solubility at 5 min [2]: > 10 µM | IC50 [3]: 101 to 200 nM
